From patent publication US20220251109A1, “OXAAZAQUINAZOLINE-7(8H)-KETONE COMPOUND, PREPARATION METHOD THEREFOR AND PHARMACEUTICAL APPLICATION THEREOF” (GENFLEET THERAPEUTICS (SHANGHAI) INC., priority 2019, published 2022)
Where two headings read alike, the source gives them in different places.

Columns and labels:
Type in all cases: cell-based, human
[1] = tested on: NCI-H358 cells (Kras G12C mutation); assay: Cell proliferation inhibition experiment, 3D model, CellTiter-Glo (NCI-H358); conditions: NCI-H358, 3D sphere plate, 5 days, 2% FBS
Procedure, shortened: (§1)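 NCI-H358 (800 cells/well) and A549 (400 cells/well) were grown as overnight 3D spheroids in 2% FBS medium, then exposed 5 days to 3.16-fold compound dilutions (0.1% DMSO). Viability was read by CellTiter-Glo luminescence; IC50 came from a four-parameter fit of inhibition normalised to DMSO and medium blanks.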

[2] = tested on: p-ERK in MIA PaCa2 cells (Kras G12C mutation); assay: Cell p-ERK detection experiment (HTRF) in MIA PaCa2 cells; conditions: compound 2 hours
Experimental: MIA PaCa2 was a human pancreatic cancer cell line with Kras G12C mutation, cultured in 10% FBS+2.5% Horse serum DMEM medium. The cells in the logarithmic growth phase were taken, digested with enzyme EDTA, collected, counted and 2.5E4 cells were seeded in a 96-well cell culture plate, cultured overnight. DMSO was used to prepare 1000× compound 3.16-fold gradient concentration stock solution, and medium was used to dilute 200-fold to 5× compound stock solution. On the second day after cell seeding, 5× compound stock solution was added to each cell culture well, the final concentration was 1×, and DMSO content was 0.1%. DMSO was used as an experimental control (control). After the compound was added and cultured for two hours, the remaining medium was removed. 50 ul cell lysis buffer was added to each well, mixed and incubated for 30 minutes, then 16 ul of the mixture was transferred to a 96-well plate with a non-transparent white bottom, and 16 ul cell lysis buffer was added to blank wells. After the completion of the transfer, 4 ul p-ERK HTRF antibody mixture was added to each well, incubated for 4 hours and the fluorescence value was read. The compound inhibition rate IR (%)=(RLU control-RLU compound)/(RLU control-RLU blank)×100% was calculated, Prism 8 four-parameter method was used to fit the compound's gradient dilution concentration and the corresponding cell proliferation inhibition rate, and the IC50 value was calculate.

[3] = tested on: MIA PaCa-2 cells (Kras G12C mutation); assay: Cell proliferation inhibition experiment, 3D model, CellTiter-Glo (MIA PaCa-2); conditions: MIA PaCa-2, 3D sphere plate, 5 days, read-out: MIA-PaCa2 IC50
Experimental: MIA PaCa2 was a human pancreatic cancer cell line with Kras G12C mutation, cultured in 10% FBS+2.5% Horse serum DMEM medium; A549 was a human lung adenocarcinoma cell line with Kras G12S mutation, cultured in 10% FBS F-12K medium. The cells in the logarithmic growth phase were taken, digested with enzyme EDTA, collected, counted and 200 MIA PaCa-2 or 400 A549 cells were seeded in a 384-well sphere plate respectively, cultured overnight to establish a 3D cell model. DMSO was used to prepare 1000× compound 3.16-fold gradient concentration stock solution, and medium was used to dilute 100-fold to 10× compound stock solution. On the second day after cell seeding, 10× compound stock solution was added to each cell culture well, the final concentration was 1×, and DMSO content was 0.1%. DMSO was used as an experimental control (control), medium as the blank control (blank). After the compound and cells were added and cultured for 5 days, 30 μl CellTiter-Glo working solution was added to each well, mixed and incubated for 30 minutes. After 30 minutes at room temperature, 40 μl of the mixture was transferred to a 384-well plate with a non-transparent white bottom, the luminescence chemiluminescence value was read, and the cells proliferation inhibition rate IR (%)=(RLU control-RLU compound)/(RLU control-RLU blank)×100% was calculated, XLFit four-parameter method was used to fit the compound's gradient dilution concentration and the corresponding cell proliferation inhibition rate, and the IC50 value was calculate.

[4] = tested on: A549 cells (Kras G12S mutation); assay: Cell proliferation inhibition experiment, 3D model, CellTiter-Glo (A549); conditions: A549, 3D sphere plate, 5 days, 2% FBS
Procedure, shortened: as §1

[5] = Homo sapiens, MIA PaCa-2, 120 h

| Structure (SMILES) | IC50 ([1]; Homo sapiens, NCI-H358, 120 h) [nM] | IC50 ([2]; Homo sapiens, MIA PaCa-2, 2 h) [nM] | IC50 [3, 5] [nM] | IC50 ([4]; Homo sapiens, A549, 120 h) [nM] | IC50 [1] [nM] | IC50 [3] [nM] | IC50 [2] [nM] | IC50 [4] [nM] |
| --- | --- | --- | --- | --- | --- | --- | --- | --- |
| C=CC(=O)N1CCN2c3nc(=O)n(-c4c(C)ccnc4C(C)C)c4nc(-c5c(O)cccc5F)c(F)c(c34)OC[C@@H]2C1 [Compound Z85] | 3 | 54 | 6 | 18700 |  |  |  |  |
| C=CC(=O)N1CCN2c3nc(=O)n(-c4c(C)ccnc4C(C)C)c4nc(-c5ccccc5Cl)c(F)c(c34)OC[C@H]2C1 [Compound Z79] | 4 | 45 | 6 | > 10000 |  |  |  |  |
| C=CC(=O)N1CCN2c3nc(=O)n(-c4c(C)ccnc4C(C)C)c4nc(-c5ccc(F)cc5F)c(Cl)c(c34)OC[C@@H]2C1 [Compound Z49] |  | 128 |  | > 10000 | 12 | 22 |  |  |
| C=CC(=O)N1CCN2c3nc(=O)n(-c4c(CO)ccnc4C(C)C)c4nc(-c5ccccc5F)c(Cl)c(c34)OC[C@H]2C1 [Compound Z122] | 7 | 101 | 11 | > 30000 |  |  |  |  |
| C=CC(=O)N1CCN2c3nc(=O)n(-c4nccnc4C(C)C)c4nc(-c5c(O)cccc5F)c(F)c(c34)OC[C@H]2C1 [Compound Z107-2] |  |  | 19 |  | 7 |  | 35 | > 30000 |
| C=CC(=O)N1CCN2c3nc(=O)n(-c4c(C)ncnc4C(C)C)c4nc(-c5ccccc5F)c(Cl)c(c34)OC[C@H]2C1 (single isomer, unassigned) [Compound Z95-2] |  |  | 1 |  | 1 |  | 5 | > 10000 |
| C=CC(=O)N1CCN2c3nc(=O)n(-c4c(C)ccnc4C4CC4)c4nc(-c5c(O)cccc5F)c(F)c(c34)OC[C@H]2C1 (single isomer, unassigned) [Compound Z112-1] |  |  |  | > 30000 | 3 | 4 | 24 |  |
| C=CC(=O)N1CCN2c3nc(=O)n(-c4c(C5CC5)ncnc4C4CC4)c4nc(-c5c(O)cccc5F)c(Cl)c(c34)OC[C@H]2C1 [Compound Z94] | 2 | 7 | 2 | > 10000 |  |  |  |  |
| C=CC(=O)N1CCN2c3nc(=O)n(-c4c(C)ccnc4C(C)C)c4nc(-c5c(C)ccc6[nH]ncc56)c(Cl)c(c34)OC[C@H]2C1 [Compound Z86] | 13 | 101 | 24 | > 10000 |  |  |  |  |
| C=CC(=O)N1CCN2c3nc(=O)n(-c4c(OC)ncnc4C(C)C)c4nc(-c5c(O)cccc5F)c(F)c(c34)OC[C@H]2C1 (single isomer, unassigned) [Compound Z111-2] | 3 | 34 | 13 | > 30000 |  |  |  |  |
| C=CC(=O)N1CCN2c3nc(=O)n(-c4c(C5CC5)ncnc4C4CC4)c4nc(-c5c(O)cccc5F)c(F)c(c34)OC[C@H]2C1 [Compound Z99] | 2 | 12 | 3 | > 10000 |  |  |  |  |
| C=CC(=O)N1CCN2c3nc(=O)n(-c4c(C)ncnc4C(C)C)c4nc(-c5ccccc5F)c(Cl)c(c34)OC[C@H]2C1 (single isomer, unassigned) [Compound Z95-1] |  |  |  | 11300 | 52 |  | 248 |  |
| C=CC(=O)N1CCN2c3nc(=O)n(-c4c(C)ccnc4C(C)C)c4nc(-c5c(F)cccc5OC)c(Cl)c(c34)OC[C@H]2C1 (single isomer, unassigned) [Compound Z83-2] |  |  |  |  | 15 |  | 67 | 9770 |
| C=CC(=O)N1CCN2c3nc(=O)n(-c4c(C)ccnc4C(C)C)c4nc(-c5c(F)cccc5OC)c(Cl)c(c34)OC[C@H]2C1 (single isomer, unassigned) [Compound Z83-1] |  |  |  | 12100 | 1 |  | 9 |  |
| C=CC(=O)N1CCN2c3nc(=O)n(-c4c(C)ccnc4C(C)C)c4nc(-c5cccc(F)c5F)c(Cl)c(c34)OC[C@@H]2C1 (atropisomer, axis not shown) [Compound Z47-2] |  |  |  |  | 42 |  | 314 | > 10000 |
| C=CC(=O)N1CCN2c3nc(=O)n(-c4c(C)ccnc4C(C)C)c4nc(-c5cccc(Cl)c5F)c(Cl)c(c34)OC[C@@H]2C1 (single isomer, unassigned) [Compound Z82-1] |  |  |  |  | 23 |  | 407 | 3560 |
| C=CC(=O)N1CCN2c3nc(=O)n(-c4c(C)ccnc4C(C)C)c4nc(-c5ccccc5Cl)c(Cl)c(c34)OC[C@H]2C1 [Compound Z90] | 4 | 19 |  | 7780 |  |  |  |  |
| C=CC(=O)N1CCN2c3nc(=O)n(-c4c(C)ccnc4C(C)C)c4nc(-c5c(O)cccc5F)c(C)c(c34)OC[C@H]2C1 [Compound Z72] | 5 | 63 |  | > 10000 |  |  |  |  |
| C=CC(=O)N1CCN2c3nc(=O)n(-c4nccnc4C(C)C)c4nc(-c5c(O)cccc5F)c(Cl)c(c34)OC[C@H]2C1 (atropisomer, axis not shown) [Compound Z105-1] |  |  |  | > 30000 | 38 |  | 395 |  |
| C=CC(=O)N1CCN2c3nc(=O)n(-c4c(C)ccnc4C(C)C)c4nc(-c5c(O)cccc5F)c(C=C)c(c34)OC[C@H]2C1 [Compound Z74] | 16 | 128 |  | > 10000 |  |  |  |  |
| C=CC(=O)N1CCN2c3nc(=O)n(-c4c(C)ccnc4C(C)C)c4nc(-c5cccc(C(F)(F)F)c5F)c(Cl)c(c34)OC[C@@H]2C1 (single isomer, unassigned) [Compound Z57-2] |  | 27 |  |  | 3 |  |  | > 10000 |
| C=CC(=O)N1CCN2c3nc(=O)n(-c4c(C)ncnc4C(C)C)c4nc(-c5cccc(F)c5F)c(Cl)c(c34)OC[C@H]2C1 (single isomer, unassigned) [Compound Z96-1] |  |  |  | > 10000 | 59 |  | 195 |  |
| C=CC(=O)N1CCN2c3nc(=O)n(-c4c(OC)ncnc4C(C)C)c4nc(-c5c(O)cccc5F)c(F)c(c34)OC[C@H]2C1 (single isomer, unassigned) [Compound Z111-1] | 34 | 186 |  | > 30000 |  |  |  |  |
| C=CC(=O)N1CCN2c3nc(=O)n(-c4c(C)ccnc4C(C)C)c4nc(-c5cccc(Cl)c5F)c(Cl)c(c34)OC[C@H]2C1 (atropisomer, axis not shown) [Compound Z91-1] |  |  |  |  | 30 |  | 93 | 10100 |
| C=CC(=O)N1CCN2c3nc(=O)n(-c4c(C)ccnc4C(C)C)c4nc(-c5cc(O)ccc5F)c(Cl)c(c34)OC[C@H]2C1 [Compound Z118] | 19 | 166 |  | > 30000 |  |  |  |  |
| C=CC(=O)N1CCN2c3nc(=O)n(-c4c(C)ccnc4C(C)C)c4nc(-c5cccc(Cl)c5F)c(Cl)c(c34)OC[C@@H]2C1 (single isomer, unassigned) [Compound Z82-2] |  |  |  |  | 2 |  | 23 | 8300 |
| C=CC(=O)N1CCN2c3nc(=O)n(-c4c(C)ccnc4C(C)C)c4nc(-c5ccc(F)cc5F)c(Cl)c(c34)OC[C@H]2C1 (single isomer, unassigned) [Compound Z76-1] |  |  |  | > 10000 | 40 |  | 109 |  |
| C=CC(=O)N1CCN2c3nc(=O)n(-c4c(C)ccnc4C(C)C)c4nc(-c5c(O)cccc5F)c(F)c(c34)OC[C@H]2C1 (atropisomer, axis not shown) [Compound Z73-1] |  |  |  |  | 9 |  | 116 | > 10000 |
| C=CC(=O)N1CCN2c3nc(=O)n(-c4c(C)ncnc4C(C)C)c4nc(-c5c(O)cccc5F)c(Cl)c(c34)OC[C@H]2C1 [Compound Z88] | 4 | 86 |  | > 10000 |  |  |  |  |
